Laboratory results published in ChEMBL document CHEMBL1127091, “Design of 5-(3,5-di-tert-butyl-4-hydroxyphenyl)-1,3,4-thiadiazoles, -1,3,4-oxadiazoles, and -1,2,4-triazoles as orally-active, nonulcerogenic antiinflammatory agents” (J Med Chem, 1993).
pIC50: −log10 of the molar value.

Key:
Cyclooxygenase = target: T1, Cyclooxygenase (Rattus norvegicus, UniProt P35355+Q63921)
T1 sequence (P35355 whole entry): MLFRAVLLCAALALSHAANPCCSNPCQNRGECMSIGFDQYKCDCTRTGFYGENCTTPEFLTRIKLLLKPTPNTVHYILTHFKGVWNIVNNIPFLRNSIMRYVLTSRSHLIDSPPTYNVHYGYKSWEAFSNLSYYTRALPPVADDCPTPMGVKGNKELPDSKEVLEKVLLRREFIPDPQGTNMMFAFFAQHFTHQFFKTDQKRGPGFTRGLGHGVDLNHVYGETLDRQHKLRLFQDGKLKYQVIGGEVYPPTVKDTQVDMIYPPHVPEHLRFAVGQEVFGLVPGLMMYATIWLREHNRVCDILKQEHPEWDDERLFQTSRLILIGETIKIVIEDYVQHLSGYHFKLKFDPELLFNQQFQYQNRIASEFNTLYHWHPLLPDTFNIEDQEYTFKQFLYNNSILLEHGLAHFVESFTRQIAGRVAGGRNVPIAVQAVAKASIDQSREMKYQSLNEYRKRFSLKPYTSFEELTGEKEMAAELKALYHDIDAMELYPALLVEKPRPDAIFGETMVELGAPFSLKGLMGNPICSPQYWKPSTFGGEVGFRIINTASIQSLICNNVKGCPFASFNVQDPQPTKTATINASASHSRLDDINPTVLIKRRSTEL
T1 sequence (Q63921 whole entry): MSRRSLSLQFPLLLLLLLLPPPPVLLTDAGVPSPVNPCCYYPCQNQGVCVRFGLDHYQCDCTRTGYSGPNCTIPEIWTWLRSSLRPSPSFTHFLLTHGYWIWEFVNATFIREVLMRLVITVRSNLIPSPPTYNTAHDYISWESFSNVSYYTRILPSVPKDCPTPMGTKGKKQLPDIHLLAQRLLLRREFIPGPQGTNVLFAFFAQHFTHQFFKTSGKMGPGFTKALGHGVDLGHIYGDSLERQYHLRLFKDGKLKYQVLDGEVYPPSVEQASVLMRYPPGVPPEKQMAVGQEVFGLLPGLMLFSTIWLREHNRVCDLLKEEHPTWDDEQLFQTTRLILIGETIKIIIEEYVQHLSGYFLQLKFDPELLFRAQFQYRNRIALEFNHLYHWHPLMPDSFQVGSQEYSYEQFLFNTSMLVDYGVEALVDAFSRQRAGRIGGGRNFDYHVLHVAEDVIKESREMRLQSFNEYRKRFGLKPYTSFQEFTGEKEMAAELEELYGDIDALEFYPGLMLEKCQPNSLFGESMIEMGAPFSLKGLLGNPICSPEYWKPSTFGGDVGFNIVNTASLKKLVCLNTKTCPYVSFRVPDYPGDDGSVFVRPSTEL
Description: Inhibition of prostaglandin G/H synthase by measuring the reduction of prostaglandin F2-alpha in intact basophilic rat leukemia cells

[1] = target: T2, Polyunsaturated fatty acid 5-lipoxygenase (Rattus norvegicus, UniProt P12527)
T2 sequence (P12527 whole entry): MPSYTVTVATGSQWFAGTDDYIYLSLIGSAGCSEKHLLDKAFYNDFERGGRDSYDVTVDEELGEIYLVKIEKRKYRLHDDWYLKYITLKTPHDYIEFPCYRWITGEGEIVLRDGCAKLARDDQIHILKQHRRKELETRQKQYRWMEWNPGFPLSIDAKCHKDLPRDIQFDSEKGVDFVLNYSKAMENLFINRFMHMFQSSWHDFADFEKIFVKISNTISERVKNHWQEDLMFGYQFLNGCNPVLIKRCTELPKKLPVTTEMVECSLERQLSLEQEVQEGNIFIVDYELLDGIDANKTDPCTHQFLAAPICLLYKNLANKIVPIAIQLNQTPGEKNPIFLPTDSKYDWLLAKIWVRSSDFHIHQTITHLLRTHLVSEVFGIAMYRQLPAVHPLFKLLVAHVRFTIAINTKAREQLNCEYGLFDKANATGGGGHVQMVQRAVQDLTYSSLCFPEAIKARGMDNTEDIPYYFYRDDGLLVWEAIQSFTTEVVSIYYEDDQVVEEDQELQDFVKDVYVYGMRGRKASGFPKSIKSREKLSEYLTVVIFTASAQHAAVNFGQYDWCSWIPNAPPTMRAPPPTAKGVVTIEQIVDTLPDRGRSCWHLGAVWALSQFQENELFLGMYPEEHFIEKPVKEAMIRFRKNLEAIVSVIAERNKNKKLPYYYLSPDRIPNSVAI
Description: Inhibition of 5-lipoxygenase measured by the reduction of leukotriene B4 (LTB4) in intact basophilic rat leukemia cells

[2] = Partition coefficient (logP); format: physicochemical; settings: octanol/water
Rattus norvegicus [3] = test: In vivo inflammatory activity measured on Carrageenan foot-pad edema (CFE) in rats, peroral administration; format: functional
Rattus norvegicus [4] = test: In vivo inflammatory activity measured on Mycobacterium foot-pad edema (MFE) model, peroral administration; format: functional
Rattus norvegicus [5] = test: In vivo inflammatory activity measured on Gastric ulcerogenicity, expressed as percent rats with ulcers at 200 mg/kg, po (n= 10 rats per experimental group); format: functional, Stomach
[6] = target: T2, Polyunsaturated fatty acid 5-lipoxygenase; remark: listed apart in the source
Description: Tested for inhibition of 5-LO by measuring the reduction of leukotriene B4 (LTB4) in intact basophilic rat leukemia cells

Rattus norvegicus [7] = test: In vivo inflammatory activity measured on Gastric ulcerogenicity (n= 10 rats per experimental group); format: functional, Stomach
Rattus norvegicus [8] = test: In vivo inflammatory activity measured on Mycobacterium foot-pad edema (MFE) model; format: functional
Rattus norvegicus [9] = test: In vivo inflammatory activity measured on Gastric ulcerogenicity, expressed as percent rats with ulcers at 10 mg/kg, po (n= 10 rats per experimental group); format: functional, Stomach
Rattus norvegicus [10] = test: In vivo inflammatory activity measured on Gastric ulcerogenicity, (n= 10 rats per experimental group); format: functional, Stomach

| Structure (SMILES) | IC50 (Cyclooxygenase) [µM] | pIC50 [1] | logP [2] | other results |
| --- | --- | --- | --- | --- |
| CC(C)(C)c1cc(-c2n[nH]c(N)n2)cc(C(C)(C)C)c1O | > 30 | 5.29 | 3.1 | – |
| CC(C)(C)c1cc(-c2nnc(N)o2)cc(C(C)(C)C)c1O | 2.4 | 6.15 | 3.7 | ID40 (Rattus norvegicus [3]): 8.2 mg/kg |
| CC(C)(C)c1cc(-c2n[nH]c(=S)s2)cc(C(C)(C)C)c1O.C[N+](C)(C)CCO | – | – | 2.7 | ID40 (Rattus norvegicus [3]): 1.1 mg/kg; ID40 (Rattus norvegicus [4]): 7.8 mg/kg; Activity (Rattus norvegicus [5]): 0% |
| CC(C)(C)c1cc(-c2n[nH]c(O)n2)cc(C(C)(C)C)c1O | 5.5 | – | 3.1 | – |
| Cc1cc(/C=C/c2cc(C(C)(C)C)c(O)c(C(C)(C)C)c2)on1 | – | – | > 4 | ID40 (Rattus norvegicus [4]): 33 mg/kg |
| Cn1c(S)nnc1-c1cc(C(C)(C)C)c(O)c(C(C)(C)C)c1 | > 32 | < 4.49 | 3.7 | – |
| CC(C)(C)c1cc(/C=C/c2nnc(O)o2)cc(C(C)(C)C)c1O | > 32 | 6.68 | 3.4 | – |
| Cn1c(O)nnc1-c1cc(C(C)(C)C)c(O)c(C(C)(C)C)c1 | – | – | 3.2 | – |
| CC(C)(C)c1cc(-c2n[nH]c(S)n2)cc(C(C)(C)C)c1O | 0.78 | 4.96 | 2.4 | – |
| CSc1nnc(-c2cc(C(C)(C)C)c(O)c(C(C)(C)C)c2)s1 | 0.41 | 5.92 | > 4 | – |
| CC(C)(C)c1cc(/C=C/c2n[nH]c(O)n2)cc(C(C)(C)C)c1O | > 32 | 5.80 | 3.8 | – |
| CC(C)(C)c1cc(/C=C/c2nnc(N)o2)cc(C(C)(C)C)c1O | 8 | 5.96 | – | – |
| CC(C)(C)c1cc(-c2nnc(O)s2)cc(C(C)(C)C)c1O | > 16 | 5.23 | 4 | – |
| COc1c(C(C)(C)C)cc(-c2nnc(S)s2)cc1C(C)(C)C | 0.35 | – | – | pIC50 [6]: 6.04 |
| CC(C)(C)c1cc(-c2nnc(O)o2)cc(C(C)(C)C)c1O | 2.5 | – | 3.4 | – |
| Cn1nc(-c2cc(C(C)(C)C)c(O)c(C(C)(C)C)c2)sc1=S | 0.65 | – | – | pIC50 [6]: 5.30 |
| CC(C)(C)c1cc(/C=C/c2nnc(S)o2)cc(C(C)(C)C)c1O | 9.4 | 6.24 | 3 | – |
| CC(C)(C)c1cc(-c2nnc(S)n2N)cc(C(C)(C)C)c1O | > 32 | < 4.49 | 3.3 | – |
| CSc1nnc(/C=C/c2cc(C(C)(C)C)c(O)c(C(C)(C)C)c2)s1 | > 10 | < 5.00 | – | – |
| CC(C)(C)c1cc(/C=C/c2n[nH]c(S)n2)cc(C(C)(C)C)c1O | 6.7 | 5.62 | 3.1 | – |
| CC(C)(C)c1cc(-c2nnc(S)o2)cc(C(C)(C)C)c1O | 3.7 | 5.32 | 2.3 | ID40 (Rattus norvegicus [3]): 3.9 mg/kg; ID40 (Rattus norvegicus [4]): 59.9 mg/kg |
| CC(C)(C)c1cc(-c2nnc(N)s2)cc(C(C)(C)C)c1O | 0.13 | – | 3.7 | ID40 (Rattus norvegicus [3]): 1.9 mg/kg; ID40 (Rattus norvegicus [4]): 2.3 mg/kg; Activity (Rattus norvegicus [5]): 10% |
| CC(C)(C)c1cc(/C=C2\CCOC2=O)cc(C(C)(C)C)c1O | – | – | > 4 | ID40 (Rattus norvegicus [3]): >10 mg/kg; ID40 (Rattus norvegicus [4]): 3.7 mg/kg; UD50 (Rattus norvegicus [7]): 93.1 mg/kg |
| CC(C)(C)c1cc(/C=C/c2nnc(S)s2)cc(C(C)(C)C)c1O | 5.2 | 5.74 | > 4 | – |
| CON1CC/C(=C\c2cc(C(C)(C)C)c(O)c(C(C)(C)C)c2)C1=O [E-5110] | – | – | > 4 | ID40 (Rattus norvegicus [8]): 1.9 mg/kg; Activity (Rattus norvegicus [9]): 10%; ID40 (Rattus norvegicus [3]): 24.1 mg/kg |
| Cc1ccc(Cl)c(Nc2ccccc2C(=O)O)c1Cl [MECLOFENAMIC ACID] | – | – | – | ID40 (Rattus norvegicus [3]): 5.6 mg/kg; UD50 (Rattus norvegicus [10]): 36.2 mg/kg; ID40 (Rattus norvegicus [4]): 0.35 mg/kg |
